Measured values: patent US20260062422A1 (Halda Therapeutics OpCo, Inc., priority 2022, published 2026)

test system: T-Rex 293 cell line SC3 cells having increased expression of androgen receptor protein due to exposure to doxycycline; test: Cellular growth inhibition, T-Rex 293 SC3 cells with doxycycline (androgen receptor induced), CellTiter-Glo; format: cell-based; details: 72 h, T-Rex 293 SC3 cells with 10 ng/mL doxycycline (increased androgen receptor expression)
In short: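 Luminescence read-out (CellTiter-Glo 2.0) after 72 h compound exposure; GI50 by four-parameter nonlinear regression, baseline set at zero luminescence. SC3 cells, a doxycycline-inducible wild-type AR clone of T-Rex 293, were cultured ±10 ng/mL doxycycline in charcoal-dextran FBS medium.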

CCNC(=O)C[C@@H]1N=C(c2ccc(N(C)C3CC(OC4CCN(c5ncc(C(=O)N[C@H]6C(C)(C)[C@H](Oc7ccc(C#N)c(Cl)c7)C6(C)C)cn5)CC4)C3)cc2)c2c(sc(C)c2C)-n2c(C)nnc21 (some centres unmarked) [Compound I-130] and CCNC(=O)C[C@@H]1N=C(c2ccc(N3CCC(OC4CCN(c5ncc(C(=O)N[C@H]6C(C)(C)[C@H](Oc7ccc(C#N)c(Cl)c7)C6(C)C)cn5)CC4)CC3)cc2)c2c(sc(C)c2C)-n2c(C)nnc21 [Compound I-114] cannot be ordered by GI50: less than 500 nM for the first, less than 500 nM for the second.

Going from Cc1sc2c(c1C)C(c1ccc(Cl)cc1)=N[C@H](CC(=O)NCCOCCOCCOCCOCCN(C)c1ncc(C(=O)N[C@H]3C(C)(C)[C@H](Oc4ccc(C#N)c(Cl)c4)C3(C)C)cn1)c1nnc(C)n1-2 [Compound I-19] to Cc1sc2c(c1C)C(c1ccc(Cl)cc1)=N[C@@H](CC(=O)NCCOCCOCCOCCOCCN(C)c1ncc(C(=O)N[C@H]3C(C)(C)[C@H](Oc4ccc(C#N)c(Cl)c4)C3(C)C)cn1)c1nnc(C)n1-2 [Compound I-3, N-((1r,3r)-3-(3-chloro-4-cyanophenoxy)-2,2,4,4-tetramethylcyclobutyl)-2-((1-((S)-4-(4-chlorophenyl)-2,3,9-trimethyl-6H-thieno[3,2-f][1,2,4]triazolo[4,3-a][1,4]diazepin-6-yl)-2-oxo-6,9,12,15-tetraoxa-3-azaheptadecan-17-yl)(methyl)amino)pyrimidine-5-carboxamide], the GI50 falls from greater than 3000 nM to less than 500 nM.

Cc1sc2c(c1C)C(c1ccc(Cl)cc1)=N[C@@H](CC(=O)NCCOC1CCN(c3ncc(C(=O)N[C@H]4C(C)(C)[C@H](Oc5ccc(C#N)c(Cl)c5)C4(C)C)cn3)CC1)c1nnc(C)n1-2 [Compound I-6] and Cc1sc2c(c1C)C(c1ccc(Cl)cc1)=N[C@@H](CC(=O)NCCCCCCCOC1CCN(c3ncc(C(=O)N[C@H]4C(C)(C)[C@H](Oc5ccc(C#N)c(Cl)c5)C4(C)C)cn3)CC1)c1nnc(C)n1-2 [Compound I-24] cannot be ordered by GI50: less than 500 nM for the first, less than 500 nM for the second.

First: Cc1sc2c(c1C)C(c1ccc(OC3CN(CC4CCN(c5ncc(C(=O)N[C@H]6C(C)(C)[C@H](Oc7ccc(C#N)c(Cl)c7)C6(C)C)cn5)CC4)C3)cc1)=N[C@H](Cc1ncco1)c1nnc(C)n1-2 [Compound I-169]
Second: Cc1sc2c(c1C)C(c1ccc(OCCOCCOC3CCN(c4ncc(C(=O)N[C@H]5C(C)(C)[C@H](Oc6ccc(C#N)c(Cl)c6)C5(C)C)cn4)CC3)cc1)=N[C@@H](CC(=O)O)c1nnc(C)n1-2 [Compound I-39]
The GI50 of the first is lower: less than 500 nM for the first, 500 to 1500 nM for the second.

Cc1sc2c(c1C)C(c1cccc(OCCOC3CCN(c4ncc(C(=O)N[C@H]5C(C)(C)[C@H](Oc6ccc(C#N)c(Cl)c6)C5(C)C)cn4)CC3)c1)=N[C@@H](CC(=O)O)c1nnc(C)n1-2 [Compound I-41] and Cc1sc2c(c1C)C(c1cccc(OCCOCCOC3CCN(c4ncc(C(=O)N[C@H]5C(C)(C)[C@H](Oc6ccc(C#N)c(Cl)c6)C5(C)C)cn4)CC3)c1)=N[C@@H](CC(=O)O)c1nnc(C)n1-2 [Compound I-42] fall in the same range of GI50: 500 to 1500 nM for the first, 500 to 1500 nM for the second.

Cc1sc2c(c1C)C(c1ccc(Cl)cc1)=N[C@@H](CC(=O)NCCOCCOCCOCCOCCOC1CCN(c3ncc(C(=O)N[C@H]4C(C)(C)[C@H](Oc5ccc(C#N)c(Cl)c5)C4(C)C)cn3)CC1)c1nnc(C)n1-2 [Compound I-8] and Cc1sc2c(c1C)C(c1ccc(Cl)cc1)=N[C@@H](CC(=O)NCCOCCOCCOCCOC1CCN(c3ncc(C(=O)N[C@H]4C(C)(C)[C@H](Oc5ccc(C#N)c(Cl)c5)C4(C)C)cn3)CC1)c1nnc(C)n1-2 [Compound I-11] cannot be ordered by GI50: less than 500 nM for the first, less than 500 nM for the second.

First: Cc1sc2c(c1C)C(c1cccc(OCCOCCOCCOC3CCN(c4ncc(C(=O)N[C@H]5C(C)(C)[C@H](Oc6ccc(C#N)c(Cl)c6)C5(C)C)cn4)CC3)c1)=N[C@@H](CC(=O)O)c1nnc(C)n1-2 [Compound I-43]
Second: CCNC(=O)C[C@@H]1N=C(c2cccc(OCCOCCOCCOC3CCN(c4ncc(C(=O)N[C@H]5C(C)(C)[C@H](Oc6ccc(C#N)c(Cl)c6)C5(C)C)cn4)CC3)c2)c2c(sc(C)c2C)-n2c(C)nnc21 [Compound I-48, N-((1r,3r)-3-(3-chloro-4-cyanophenoxy)-2,2,4,4-tetramethylcyclobutyl)-2-(4-(2-(2-(2-(3-((S)-6-(2-(ethylamino)-2-oxoethyl)-2,3,9-trimethyl-6H-thieno[3,2-f][1,2,4]triazolo[4,3-a][1,4]diazepin-4-yl)phenoxy)ethoxy)ethoxy)ethoxy)piperidin-1-yl)pyrimidine-5-carboxamide]
The GI50 of the first is higher: greater than 3000 nM for the first, less than 500 nM for the second.

Compared with CCNC(=O)C[C@@H]1N=C(c2ccc(OCCOCCOCCOC3CCN(c4ncc(C(=O)N[C@H]5C(C)(C)[C@H](Oc6ccc(C#N)c(Cl)c6)C5(C)C)cn4)CC3)cc2)c2c(sc(C)c2C)-n2c(C)nnc21 [Compound I-45, N-((1r,3r)-3-(3-chloro-4-cyanophenoxy)-2,2,4,4-tetramethylcyclobutyl)-2-(4-(2-(2-(2-(4-((S)-6-(2-(ethylamino)-2-oxoethyl)-2,3,9-trimethyl-6H-thieno[3,2-f][1,2,4]triazolo[4,3-a][1,4]diazepin-4-yl)phenoxy)ethoxy)ethoxy)ethoxy)piperidin-1-yl)pyrimidine-5-carboxamide], Cc1sc2c(c1C)C(c1ccc(OCCOCCOCCOC3CCN(c4ncc(C(=O)N[C@H]5C(C)(C)[C@H](Oc6ccc(C#N)c(Cl)c6)C5(C)C)cn4)CC3)cc1)=N[C@@H](CC(=O)O)c1nnc(C)n1-2 [Compound I-40] is higher in GI50: less than 500 nM for the first, greater than 3000 nM for the second.

Cc1sc2c(c1C)C(c1ccc(Cl)cc1)=N[C@@H](CC(=O)NCCCN1CCN(CCCOC3CCN(c4ncc(C(=O)N[C@H]5C(C)(C)[C@H](Oc6ccc(C#N)c(Cl)c6)C5(C)C)cn4)CC3)CC1)c1nnc(C)n1-2 [Compound I-10] and Cc1sc2c(c1C)C(c1ccc(Cl)cc1)=N[C@@H](CC(=O)NCCCCOCCOC1CCN(c3ncc(C(=O)N[C@H]4C(C)(C)[C@H](Oc5ccc(C#N)c(Cl)c5)C4(C)C)cn3)CC1)c1nnc(C)n1-2 [Compound I-28] cannot be ordered by GI50: less than 500 nM for the first, less than 500 nM for the second.

CCNC(=O)C[C@@H]1N=C(c2ccc(N3CCC(N(C)C4CCN(c5ncc(C(=O)N[C@H]6C(C)(C)[C@H](Oc7ccc(C#N)c(Cl)c7)C6(C)C)cn5)CC4)CC3)cc2)c2c(sc(C)c2C)-n2c(C)nnc21 [Compound I-113] and CCNC(=O)C[C@@H]1N=C(c2cccc(OCCOCCOC3CCN(c4ncc(C(=O)N[C@H]5C(C)(C)[C@H](Oc6ccc(C#N)c(Cl)c6)C5(C)C)cn4)CC3)c2)c2c(sc(C)c2C)-n2c(C)nnc21 [Compound I-47, N-((1r,3r)-3-(3-chloro-4-cyanophenoxy)-2,2,4,4-tetramethylcyclobutyl)-2-(4-(2-(2-(3-((S)-6-(2-(ethylamino)-2-oxoethyl)-2,3,9-trimethyl-6H-thieno[3,2-f][1,2,4]triazolo[4,3-a][1,4]diazepin-4-yl)phenoxy)ethoxy)ethoxy)piperidin-1-yl)pyrimidine-5-carboxamide] cannot be ordered by GI50: less than 500 nM for the first, less than 500 nM for the second.

First: Cc1sc2c(c1C)C(c1ccc(Cl)cc1)=N[C@H](CC(=O)NCCOCCOCCOCCOCCOCCOCCOC1CCN(c3ncc(C(=O)N[C@H]4C(C)(C)[C@H](Oc5ccc(C#N)c(Cl)c5)C4(C)C)cn3)CC1)c1nnc(C)n1-2 [Compound I-9]
Second: Cc1sc2c(c1C)C(c1ccc(Cl)cc1)=N[C@H](CC(=O)NCCOCCOCCOCCOC1CCN(c3ncc(C(=O)N[C@H]4C(C)(C)[C@H](Oc5ccc(C#N)c(Cl)c5)C4(C)C)cn3)CC1)c1nnc(C)n1-2 [Compound I-13]
The GI50 of the first is lower: less than 500 nM for the first, greater than 3000 nM for the second.

Compared with Cc1sc2c(c1C)C(c1ccc(Cl)cc1)=N[C@@H](CC(=O)NCCOCCOCCOCC1CN(c3ncc(C(=O)N[C@H]4C(C)(C)[C@H](Oc5ccc(C#N)c(Cl)c5)C4(C)C)cn3)C1)c1nnc(C)n1-2 [Compound I-18], Cc1sc2c(c1C)C(c1ccc(Cl)cc1)=N[C@@H](CC(=O)NCCOCCOCCOCC1CCN(c3ncc(C(=O)N[C@H]4C(C)(C)[C@H](Oc5ccc(C#N)c(Cl)c5)C4(C)C)cn3)CC1)c1nnc(C)n1-2 [Compound I-17] is lower in GI50: 500 to 1500 nM for the first, less than 500 nM for the second.

Cc1sc2c(c1C)C(c1ccc(Cl)cc1)=N[C@@H](CC(=O)NCCOCCOCCOCCOCCOCCOCCN(C)c1ncc(C(=O)N[C@H]3C(C)(C)[C@H](Oc4ccc(C#N)c(Cl)c4)C3(C)C)cn1)c1nnc(C)n1-2 [Compound I-4] and Cc1sc2c(c1C)C(c1ccc(Cl)cc1)=N[C@@H](CC(=O)NCCCN1CCN(CCCN(C)c3ncc(C(=O)N[C@H]4C(C)(C)[C@H](Oc5ccc(C#N)c(Cl)c5)C4(C)C)cn3)CC1)c1nnc(C)n1-2 [Compound I-5, N-((1r,3r)-3-(3-chloro-4-cyanophenoxy)-2,2,4,4-tetramethylcyclobutyl)-2-((3-(4-(3-(2-((S)-4-(4-chlorophenyl)-2,3,9-trimethyl-6H-thieno[3,2-f][1,2,4]triazolo[4,3-a][1,4]diazepin-6-yl)acetamido)propyl)piperazin-1-yl)propyl)(methyl)amino)pyrimidine-5-carboxamide] cannot be ordered by GI50: less than 500 nM for the first, less than 500 nM for the second.

same assay, conditions: T-Rex 293 SC3 cells with 10 ng/mL doxycycline (increased androgen receptor expression), 72 hours

With Cc1sc2c(c1C)C(c1ccc(Cl)cc1)=N[C@@H](CC(=O)NCCCCCOC1CCN(c3ncc(C(=O)N[C@H]4C(C)(C)[C@H](Oc5ccc(C#N)c(Cl)c5)C4(C)C)cn3)CC1)c1nnc(C)n1-2 [Compound I-22, N-((1r,3r)-3-(3-chloro-4-cyanophenoxy)-2,2,4,4-tetramethylcyclobutyl)-2-(4-((5-(2-((S)-4-(4-chlorophenyl)-2,3,9-trimethyl-6H-thieno[3,2-A][1,2,4]triazolo[4,3-a][1,4]diazepin-6-yl)acetamido)pentyl)oxy)piperidin-1-yl)pyrimidine-5-carboxamide] the GI50 was less than 500 nM.

test system: T47D cells; test: Cellular growth inhibition assay for T47D cells, CellTiter-Glo; format: cell-based, human; details: 72 hours treatment, CellTiter-Glo 2.0 cell viability
In short: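 Growth inhibition as GI50, fitted with four parameters to CellTiter-Glo luminescence after 72 h of compound exposure (0.5% DMSO). Cells were T47D, grown in insulin-supplemented (0.2 units/mL) DMEM with 10% FBS and treated one day post-seeding.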

In the case of Cc1sc2c(c1C)C(c1ccc(CC3CC4(CCN(c5ncc(C(=O)N[C@H]6C(C)(C)[C@H](Oc7ccc(C#N)c(Cl)c7)C6(C)C)cn5)CC4)C3)cc1)=N[C@@H](C)c1nnc(C)n1-2 [Compound I-303], the GI50 is reported as less than 500 nM.

same assay, conditions: Homo sapiens, T47D, 72 h, 72 hours treatment, CellTiter-Glo 2.0 cell viability

First: CCNC(=O)C[C@@H]1N=C(c2ccc(N(C)C3CC(OC4CCN(c5ncc(C(=O)N[C@H]6C(C)(C)[C@H](Oc7ccc(C#N)c(Cl)c7)C6(C)C)cn5)CC4)C3)cc2)c2c(sc(C)c2C)-n2c(C)nnc21 (some centres unmarked) [Compound I-130]
Second: Cc1sc2c(c1C)C(c1cccc(OCCOC3CCN(c4ncc(C(=O)N[C@H]5C(C)(C)[C@H](Oc6ccc(C#N)c(Cl)c6)C5(C)C)cn4)CC3)c1)=N[C@@H](CC(=O)O)c1nnc(C)n1-2 [Compound I-41]
The GI50 of the first is lower: 500 to 1500 nM for the first, 1500 to 3000 nM for the second.

Compared with Cc1sc2c(c1C)C(c1ccc(OC3CN(CC4CCN(c5ncc(C(=O)N[C@H]6C(C)(C)[C@H](Oc7ccc(C#N)c(Cl)c7)C6(C)C)cn5)CC4)C3)cc1)=N[C@H](Cc1ncco1)c1nnc(C)n1-2 [Compound I-169], Cc1sc2c(c1C)C(c1ccc(Cl)cc1)=N[C@@H](CC(=O)NCCOCCOCCOCCOCCOC1CCN(c3ncc(C(=O)N[C@H]4C(C)(C)[C@H](Oc5ccc(C#N)c(Cl)c5)C4(C)C)cn3)CC1)c1nnc(C)n1-2 [Compound I-8] is higher in GI50: less than 500 nM for the first, 500 to 1500 nM for the second.
